Experimental data from patent publication US10954214B2 (Janssen Pharmaceutica NV, priority 2016, dated 2021).

Legend:
OCI-Ly3 cells = test: 4-day proliferation assay, OCI-Ly3; assay type: cell-based, human; details: Homo sapiens, 96 h, 4 days incubation, CellTiterGLO, read-out: Anti-proliferation: OCI-LY-3 IC50
Outline: (§1)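 TMD8 and OCI-Ly3 cells were seeded at 10,000 per well and grown 4 days at 37° C, 5% CO2 without beta-mercaptoethanol. Viability was read by CellTiter-Glo luminescence. IC50 and Hill slope were fitted relative to the low control median.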

[1] = test system: IL10 secretion by OCI-LY3 ABC-DLBCL cells; test: Human IL10 Mesoscale assay (OCI-LY3); assay type: cell-based; details: Homo sapiens, 24 h
Outline: (§2)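 Read-out: MSD electrochemiluminescence of IL6/IL10 in supernatants. Cells (100,000/well, no beta-mercaptoethanol) were exposed to compounds at 15 μM down to 58.6 nM, 1:2 dilutions, for 24 h at 37° C, 5% CO2. Normalised between DMSO (high) and RN486 (low) controls.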

TMD8 cells = test: 4-day proliferation assay, TMD8; assay type: cell-based; details: Homo sapiens, 96 h, 4 days incubation, CellTiterGLO, read-out: Anti-proliferation: TMD-8 IC50
Outline: as §1

[2] = test system: IL6 secretion by OCI-LY3 ABC-DLBCL cells; test: Human IL6 Mesoscale assay (OCI-LY3); assay type: cell-based; details: Homo sapiens, 24 h
Outline: as §2

[3] = biological target: full-length MALT1 protein (Strep-MALT1(1-824)-His) (Homo sapiens (Human), UniProt Q9UDY8); test: MALT1 Biochemical Protease Assay (Ac-LRSR-AMC substrate); details: 10 nM FL MALT1, 200 μM Ac-LRSR-AMC, 4 h at RT; read-out: MALT1_Biochemical activity (Ac-LRSR-amc) IC50
Outline: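 Full-length MALT1 pre-incubated with compounds (30 μM to 0.5 nM, 11 threefold steps) for 50 min at RT. After Ac-LRSR-AMC was added, the reaction ran 4 h at RT and AMC fluorescence was read. IC50 and Hill slope from curve fitting against no-enzyme and no-compound controls.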

Sequence of full-length MALT1 protein (Strep-MALT1(1-824)-His) (Q9UDY8 whole entry): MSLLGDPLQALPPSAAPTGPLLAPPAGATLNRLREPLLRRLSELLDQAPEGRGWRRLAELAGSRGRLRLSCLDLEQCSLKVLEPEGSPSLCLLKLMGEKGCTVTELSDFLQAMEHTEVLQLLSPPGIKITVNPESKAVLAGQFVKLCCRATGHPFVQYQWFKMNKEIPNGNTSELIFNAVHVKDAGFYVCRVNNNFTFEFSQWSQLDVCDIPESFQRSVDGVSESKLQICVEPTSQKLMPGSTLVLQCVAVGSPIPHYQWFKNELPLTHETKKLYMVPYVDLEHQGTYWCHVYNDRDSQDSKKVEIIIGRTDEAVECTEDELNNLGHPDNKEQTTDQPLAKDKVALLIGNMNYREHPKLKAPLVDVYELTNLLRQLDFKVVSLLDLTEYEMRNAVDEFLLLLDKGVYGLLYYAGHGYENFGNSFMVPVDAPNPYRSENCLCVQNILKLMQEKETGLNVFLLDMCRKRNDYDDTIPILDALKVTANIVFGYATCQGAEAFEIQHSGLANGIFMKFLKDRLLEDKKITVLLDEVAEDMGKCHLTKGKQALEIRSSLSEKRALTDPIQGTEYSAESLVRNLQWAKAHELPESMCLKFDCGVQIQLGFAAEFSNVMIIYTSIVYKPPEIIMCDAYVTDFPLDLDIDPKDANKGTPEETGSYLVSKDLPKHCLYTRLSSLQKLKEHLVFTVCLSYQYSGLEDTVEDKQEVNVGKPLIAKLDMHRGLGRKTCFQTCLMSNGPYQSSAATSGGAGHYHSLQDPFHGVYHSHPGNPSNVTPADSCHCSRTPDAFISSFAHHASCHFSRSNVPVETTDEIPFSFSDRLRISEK

Row | IC50 (OCI-Ly3 cells) [nM] | IC50 [1] [nM] | IC50 [2] [nM] | IC50 [3] [nM] | SMILES | IC50 (TMD8 cells) [nM]
1 | 1500 | 110 | 141 | 38 | Cn1nc(-c2ncc(NC(=O)c3cnn(-c4cccc5ncccc45)c3C(F)(F)F)cc2C#N)cc1N [Cpd 181, N-(6-(5-amino-1-methyl-1H-pyrazol-3-yl)-5-cyanopyridin-3-yl)-1-(quinolin-5-yl)-5-(trifluoromethyl)-1H-pyrazole-4-carboxamide] | > 7940
2 | 692 | 50 | 58 | 22 | Cc1nc(-n2nccn2)c(Cl)cc1NC(=O)c1cnn(-c2cccc3nnsc23)c1C(F)(F)F [Cpd 121, 1-(benzo[d][1,2,3]thiadiazol-7-yl)-N-(5-chloro-2-methyl-6-(2H-1,2,3-triazol-2-yl)pyridin-3-yl)-5-(trifluoromethyl)-1H-pyrazole-4-carboxamide] | 1900
3 | 631 | 692 | 1020 | 39 | Cc1nc(-n2nccn2)c(C#N)cc1NC(=O)c1cnn(-c2cccc3nnsc23)c1C(F)(F)F [Cpd 314, 1-(benzo[d][1,2,3]thiadiazol-7-yl)-N-(5-cyano-2-methyl-6-(2H-1,2,3-triazol-2-yl)pyridin-3-yl)-5-(trifluoromethyl)-1H-pyrazole-4-carboxamide] | 1860
4 | 763 | 174 | 288 | 42 | N#Cc1cnn(-c2ncc(NC(=O)c3cnn(-c4cccc5ncccc45)c3C(F)(F)F)cc2Cl)n1 [Cpd 179, N-(5-chloro-6-(4-cyano-2H-1,2,3-triazol-2-yl)pyridin-3-yl)-1-(quinolin-5-yl)-5-(trifluoromethyl)-1H-pyrazole-4-carboxamide] | 1950
5 | 132 | 56 | 52 | 13 | N#Cc1cc(NC(=O)c2cnn(-c3cccc4c(F)cccc34)c2C(F)(F)F)cnc1-n1nccn1 [Cpd 122, N-(5-cyano-6-(2H-1,2,3-triazol-2-yl)pyridin-3-yl)-1-(5-fluoronaphthalen-1-yl)-5-(trifluoromethyl)-1H-pyrazole-4-carboxamide] | 162
6 | 295 | 85 | 123 | 15 | O=C(Nc1cnc(-n2nccn2)c(Cl)c1)c1cnn(-c2cccn3nccc23)c1C(F)(F)F [Cpd 197, N-(5-chloro-6-(2H-1,2,3-triazol-2-yl)pyridin-3-yl)-1-(pyrazolo[1,5-a]pyridin-4-yl)-5-(trifluoromethyl)-1H-pyrazole-4-carboxamide] | 7410
7 | 275 | 36 | 50 | 23 | O=C(Nc1cnc(-n2nccn2)c(Br)c1)c1cnn(-c2cccc3ncccc23)c1C(F)(F)F [Cpd 139, N-(5-bromo-6-(2H-1,2,3-triazol-2-yl)pyridin-3-yl)-1-(quinolin-5-yl)-5-(trifluoromethyl)-1H-pyrazole-4-carboxamide] | 1410
8 | 284 | 89 | 107 | 10 | N#Cc1cc(NC(=O)c2cnn(-c3cnc(N)c4c(F)cccc34)c2C(F)(F)F)cnc1-n1nccn1 [Cpd 111, 1-(1-amino-8-fluoroisoquinolin-4-yl)-N-(5-cyano-6-(2H-1,2,3-triazol-2-yl)pyridin-3-yl)-5-(trifluoromethyl)-1H-pyrazole-4-carboxamide] | 3310
9 | 158 | 12 | 17 | 15 | N#Cc1cc(NC(=O)c2cnn(-c3cncc4c(F)cccc34)c2C(F)(F)F)cnc1-n1nccn1 [Cpd 118, N-(5-cyano-6-(2H-1,2,3-triazol-2-yl)pyridin-3-yl)-1-(8-fluoroisoquinolin-4-yl)-5-(trifluoromethyl)-1H-pyrazole-4-carboxamide] | 832
10 | 881 | 89 | 105 | 45 | N#Cc1cc(NC(=O)c2cnn(-c3ccc(N)c4ncccc34)c2C(F)(F)F)cnc1-n1nccn1 [Cpd 326, 1-(8-aminoquinolin-5-yl)-N-(5-cyano-6-(2H-1,2,3-triazol-2-yl)pyridin-3-yl)-5-(trifluoromethyl)-1H-pyrazole-4-carboxamide] | 3240
11 | 395 | 95 | 98 | 19 | Nc1cnn(-c2ncc(NC(=O)c3cnn(-c4cccc5ncccc45)c3C(F)(F)F)cc2Cl)n1 [Cpd 154, N-(6-(4-amino-2H-1,2,3-triazol-2-yl)-5-chloropyridin-3-yl)-1-(quinolin-5-yl)-5-(trifluoromethyl)-1H-pyrazole-4-carboxamide] | 2240
12 | 295 | 71 | 107 | 10 | O=C(Nc1cnc(-n2nccn2)c(Cl)c1)c1cnn(-c2ccnc3ccccc23)c1C(F)(F)F [Cpd 450, N-(5-chloro-6-(2H-1,2,3-triazol-2-yl)pyridin-3-yl)-1-(quinolin-4-yl)-5-(trifluoromethyl)-1H-pyrazole-4-carboxamide] | 2820
13 | 1590 | 95 | 117 | 45 | Cc1nc(-n2nccn2)c(C#N)cc1NC(=O)c1cnn(-c2cccc3c(=O)[nH]ccc23)c1C(F)(F)F [Cpd 176, N-(5-cyano-2-methyl-6-(2H-1,2,3-triazol-2-yl)pyridin-3-yl)-1-(1-oxo-1,2-dihydroisoquinolin-5-yl)-5-(trifluoromethyl)-1H-pyrazole-4-carboxamide] | > 20000
14 | 593 | 42 | 46 | 25 | O=C(Nc1cnc(-c2nnco2)c(Cl)c1)c1cnn(-c2cccc3ncccc23)c1C(F)(F)F [Cpd 192, N-(5-chloro-6-(1,3,4-oxadiazol-2-yl)pyridin-3-yl)-1-(quinolin-5-yl)-5-(trifluoromethyl)-1H-pyrazole-4-carboxamide] | 4570
15 | 1750 | 182 | 166 | 72 | Cc1nc(-c2ccn(C)n2)c(Cl)cc1NC(=O)c1cnn(-c2cccc3c(=O)[nH]ccc23)c1C(F)(F)F [Cpd 169, N-(5-chloro-2-methyl-6-(1-methyl-1H-pyrazol-3-yl)pyridin-3-yl)-1-(1-oxo-1,2-dihydroisoquinolin-5-yl)-5-(trifluoromethyl)-1H-pyrazole-4-carboxamide] | 8910
16 | 550 | 79 | 117 | 1290 | O=C(Nc1cnc(-n2nccn2)c(Cl)c1)c1cnn(-c2cnc(O)c3ccccc23)c1C(F)(F)F [Cpd 448, N-(5-chloro-6-(2H-1,2,3-triazol-2-yl)pyridin-3-yl)-1-(1-hydroxyisoquinolin-4-yl)-5-(trifluoromethyl)-1H-pyrazole-4-carboxamide] | 5620
17 | 1450 | 182 | 251 | 37 | N#Cc1cc(NC(=O)c2cnn(-c3cccc4scnc34)c2C(F)(F)F)cnc1-n1nccn1 [Cpd 316, 1-(benzo[d]thiazol-4-yl)-N-(5-cyano-6-(2H-1,2,3-triazol-2-yl)pyridin-3-yl)-5-(trifluoromethyl)-1H-pyrazole-4-carboxamide] | 3090
18 | 641 | 91 | 115 | 26 | Cc1nc(-n2nccn2)c(Cl)cc1NC(=O)c1cnn(-c2cccn3nccc23)c1C(F)(F)F | 3020
19 | 2800 | 427 | 589 | 42 | Nc1cnnn1-c1ncc(NC(=O)c2cnn(-c3cccc4c(=O)[nH]ccc34)c2C(F)(F)F)cc1Cl [Cpd 178, N-(6-(5-amino-1H-1,2,3-triazol-1-yl)-5-chloropyridin-3-yl)-1-(1-oxo-1,2-dihydroisoquinolin-5-yl)-5-(trifluoromethyl)-1H-pyrazole-4-carboxamide] | > 20000
20 | 313 | 42 | 46 | 447 | O=C(Nc1cnc(-n2nccn2)c(Cl)c1)c1cnn(-c2cncc3sccc23)c1C(F)(F)F [Cpd 447, N-(5-chloro-6-(2H-1,2,3-triazol-2-yl)pyridin-3-yl)-1-(thieno[2,3-c]pyridin-4-yl)-5-(trifluoromethyl)-1H-pyrazole-4-carboxamide] | 2190
21 | 912 | 79 | 170 | 11 | N#Cc1cc(NC(=O)c2cnn(-c3cccc4c(=O)[nH]ccc34)c2C(F)(F)F)cnc1-n1nccn1 [Cpd 113, N-(5-cyano-6-(2H-1,2,3-triazol-2-yl)pyridin-3-yl)-1-(1-oxo-1,2-dihydroisoquinolin-5-yl)-5-(trifluoromethyl)-1H-pyrazole-4-carboxamide] | 13800
